Data published in patent US20240308998A1, “PYRROLOPYRIDONE DERIVATIVES USEFUL IN THE TREATMENT OF CANCER” (Tay Therapeutics Limited, priority 2021, published 2024).
Where a name gives a salt, the structure may show the parent alone.

Tests used:
[1] = molecular target: T1, BRD4 BD2 (Homo sapiens, UniProt O60885); experiment: NanoBRET bromodomain assay, BRD4 BD2; assay type: cell-based; settings: for Fold selectivity BRD4 BD1/BD2: IC50 BD1/IC50 BD2; for IC50: NanoBRET, HEK293 cells transfected with NanoLuc-BRD4-BD2
T1 construct: HEK293 cells were transfected using NanoLuc-BRD4-BD1 or NanoLuc-BRD4-BD2 fusion vectors; host or cells: HEK293
Method in brief: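 HEK293 cells transfected with NanoLuc-BRD4-BD2 fusion for 20-24 h, then treated with compound plus 1x tracer for 2 h at 37° C. Donor 450 nm / acceptor 610 nm emissions converted to background-corrected mBU; IC50 by nonlinear regression; selectivity as IC50 BD1/IC50 BD2.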

[2] = Intrinsic clearance in rat liver microsomes; assay type: in vitro ADME; settings: pH 7.4, NADPH, read-out: Rat Microsomal Stability T½
Experimental: (§1) A 50 mM stock solution (in DMSO) was prepared for the compound. From the stock solution, a working solution of 0.5 mM was prepared by diluting the compound in DMSO. This concentration of working solution was prepared considering a final concentration of 1 uM with 0.1% DMSO. The compound (1 uL of working solution) was spiked in PBS with pH 7.4 (22 uL) at a concentration of 1 uM. Subsequently, 110 uL of 10 mM NADPH was added (as a co-factor). The sample was incubated at 37° C. for 15 min. Following this, pre-warmed rat liver microsomes (27.5 uL; final protein conc. 0.5 mg/mL) were added. The samples were then incubated at 37° C. Aliquots of samples were withdrawn at 0, 5, 15, 30, 45 and 60 min. The reaction was stopped by using chilled acetonitrile containing internal standard. The samples were centrifuged and the supernatants analysed by LC-MS/MS. The percent compound remaining at each time point was calculated with respect to that of the 0 min sample. The data were then analysed to calculate half-life. Note that control samples were run without NADPH and blank samples were prepared using DMSO without the test Compound.

[3] = Mouse plasma stability; assay type: in vitro ADME; settings: 10 μM in mouse plasma, 37° C.
Experimental: The stock solution of compound (10 or 50 mM) was prepared in DMSO. From the stock solution, a working solution of compound (500 uM) was prepared in DMSO (100%). To 735 μL of mouse plasma, 15 μL of working solution of compound was added—resulting in a final concentration of 10 μM (2% DMSO) for the compound. The sample was then incubated at 37° C. Aliquot was withdrawn at time-points—0, 15, 30, 60, 90 and 120 mins. The reaction was stopped by using chilled acetonitrile containing internal standard (IS). The samples were centrifuged and the supernatants analyzed using LC-MS/MS. The percent remaining of the compound at each time point was calculated with respect to the control sample (0 min time-point).

[4] = molecular target: T2, BRD4 BD1 (Homo sapiens, UniProt O60885); experiment: NanoBRET bromodomain assay, BRD4 BD1; assay type: cell-based; settings: HEK293 cells transfected with NanoLuc-BRD4-BD1
T2 construct: HEK293 cells were transfected using NanoLuc-BRD4-BD1 or NanoLuc-BRD4-BD2 fusion vectors; host or cells: HEK293
Method in brief: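 Transfected HEK293 cells expressing NanoLuc-BRD4-BD1 were incubated with 1x tracer and serially diluted compound for 2 h at 37 °C, then given Nano-Glo substrate plus extracellular NanoLuc inhibitor. Donor 450 nm and acceptor 610 nm emissions were converted to background-corrected mBU, and IC50 was derived by nonlinear regression.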

[5] = Intrinsic clearance in mouse liver microsomes; assay type: in vitro ADME; settings: 1 uM, NADPH
Experimental: as §1, with “pre-warmed mouse” for “pre-warmed rat”, “calculate half-life and intrinsic clearance (CLint).” for “calculate half-life.”, “test compound.” for “test Compound.”

[6] = Balb/c mouse pharmacokinetics after oral (PO) dosing; assay type: in vivo; settings: male, plasma
Experimental: Compounds were formulated in 5% DMSO, 40% PEG-400, 55% Milli-Q water at a concentration of 0.5 mg/mL for 5 mg/kg and 3 mg/mL for 30 mg/kg PO dosing. […] Blood was sampled at various timepoints and plasma isolated. 10 μL of plasma with 5 μL of blank Balb/c mouse plasma were added to 200 μL of acetonitrile containing IS mixture. The samples were vortexed for 30 s. After centrifugation at 4 degree Celsius, 3900 rpm for 15 min, the supernatant was diluted 3 times with water. 20 μL of diluted supernatant was injected into the LC/MS/MS system for quantitative analysis and concentration of analyte determined by comparison with matrix matched standard curve. WinNonlin (Phoenix™, version 8.3) or other similar software was used for pharmacokinetic calculations.

Row | SMILES | Fold selectivity BRD4 BD1/BD2 [1] | IC50 [1] | half-life at 1 uM [2] | Mouse Plasma Stability % remaining at 120 minutes [3] | IC50 [4] | Mouse Microsomal Stability (intrinsic clearance) [5] | Cmax ([6]; 5 mg/kg, Casette) | bioavailability ([6]; 5 mg/kg, Casette) | Cmax ([6]; 30 mg/kg, Individual) | bioavailability ([6]; 30 mg/kg, Individual)
1 | Cc1cccc(C)c1Oc1cn(C)c(=O)cc1-c1cn(C)c(=O)c2[nH]c(-c3cnn(C(C)C)c3)cc12 [Example 11, 4-(5-(2,6-dimethylphenoxy)-1-methyl-2-oxo-1,2-dihydropyridin-4-yl)-2-(1-isopropyl-1H-pyrazol-4-yl)-6-methyl-1,6-dihydro-7H-pyrrolo[2,3-c] pyridin-7-one] | xx (Fold >50 and ≤200) | ≤ 50 nM | > 60 min | 98% | 50 to 500 nM | – | – | – | – | –
2 | CCNC(=O)c1cc2c(-c3ccn(C)c(=O)c3Oc3c(C)cc(F)cc3C)cn(C)c(=O)c2[nH]1 [Comparative Example A, reference compound] | xx (Fold >50 and ≤200) | 50 to 200 nM | – | 7% | > 1000 nM | 0.9 ml/min/g liver | – | – | – | –
3 | Cc1cccc(C)c1Oc1cn(C)c(=O)cc1-c1cn(C)c(=O)c2[nH]c(-c3ccccc3F)cc12 [Example 14, 4-(5-(2,6-dimethylphenoxy)-1-methyl-2-oxo-1,2-dihydropyridin-4-yl)-2-(2-fluorophenyl)-6-methyl-1,6-dihydro-7H-pyrrolo[2,3-c] pyridin-7-one] | xxx (Fold >200) | ≤ 50 nM | > 60 min | 99% | > 1000 nM | – | – | – | – | –
4 | Cc1cc(-c2cc3c(-c4cc(=O)n(C)cc4Oc4c(C)cccc4C)cn(C)c(=O)c3[nH]2)cc(C)n1 [Example 17, 4-(5-(2,6-dimethylphenoxy)-1-methyl-2-oxo-1,2-dihydropyridin-4-yl)-2-(2,6-dimethylpyridin-4-yl)-6-methyl-1,6-dihydro-7H-pyrrolo[2,3-c] pyridin-7-one.TFA] | xxx (Fold >200) | ≤ 50 nM | > 60 min | 42% | > 1000 nM | – | – | – | – | –
5 | Cc1cc(F)cc(C)c1Oc1c(-c2cn(C)c(=O)c3[nH]c(C(=O)NC(C)(C)C)cc23)ccn(C)c1=O [Comparative Example B, reference compound] | – | – | – | 100% | – | 5.1 ml/min/g liver | – | – | – | –
6 | Cc1cccc(C)c1Oc1cn(C)c(=O)cc1-c1cn(C)c(=O)c2[nH]c(-c3ncc(C(F)(F)F)[nH]3)cc12 [Example 3, 4-(5-(2,6-dimethylphenoxy)-1-methyl-2-oxo-1,2-dihydropyridin-4-yl)-6-methyl-2-(5-(trifluoromethyl)-1H-imidazol-2-yl)-1,6-dihydro-7H-pyrrolo[2,3-c] pyridin-7-one] | xxx (Fold >200) | ≤ 50 nM | – | 77% | > 1000 nM | 0.5 ml/min/g liver | – | – | – | –
7 | Cc1cnc(-c2cc3c(-c4cc(=O)n(C)cc4-c4ccccc4)cn(C)c(=O)c3[nH]2)[nH]1 [Example 5, 6-methyl-2-(5-methyl-1H-imidazol-2-yl)-4-(1-methyl-2-oxo-5-phenyl-1,2-dihydropyridin-4-yl)-1,6-dihydro-7H-pyrrolo [2,3-c] pyridin-7-one] | xx (Fold >50 and ≤200) | 50 to 200 nM | – | – | > 1000 nM | 0.6 ml/min/g liver | – | – | – | –
8 | Cc1cc(-c2cc3c(-c4cc(=O)n(C)cc4Oc4c(C)cccc4C)cn(C)c(=O)c3[nH]2)n(C)n1 [Example 7, 2-(1,3-dimethyl-1H-pyrazol-5-yl)-4-(5-(2,6-dimethylphenoxy)-1-methyl-2-oxo-1,2-dihydropyridin-4-yl)-6-methyl-1,6-dihydro-7H-pyrrolo[2,3-c] pyridin-7-one] | xxx (Fold >200) | ≤ 50 nM | > 60 min | 84% | > 1000 nM | – | – | – | – | –
9 | Cc1cccc(C)c1Oc1cn(C)c(=O)cc1-c1cn(C)c(=O)c2[nH]c(C3=NCCN3)cc12 [Example 4, 2-(4,5-dihydro-1H-imidazol-2-yl)-4-(5-(2,6-dimethylphenoxy)-1-methyl-2-oxo-1,2-dihydropyridin-4-yl)-6-methyl-1,6-dihydro-7H-pyrrolo[2,3-c]pyridin-7-one] | x (Fold >2 and ≤50) | 200 to 1000 nM | – | – | > 1000 nM | 0.6 ml/min/g liver | – | – | – | –
10 | Cc1cccc(C)c1Oc1cn(C)c(=O)cc1-c1cn(C)c(=O)c2[nH]c(-c3ccc(=O)n(C)c3)cc12 [Example 51, 5-(2,6-dimethylphenoxy)-1-methyl-4-[6-methyl-2-(1-methyl-6-oxopyridin-3-yl)-7-oxo-1H-pyrrolo[2,3-c]pyridin-4-yl]pyridin-2-one] | xx (Fold >50 and ≤200) | 50 to 200 nM | – | – | > 1000 nM | – | 24.4 ng/mL | 6.83% | – | –
11 | Cc1cc(-c2cc3c(-c4cc(=O)n(C)cc4-c4ccccc4)cn(C)c(=O)c3[nH]2)n(C)n1 [Example 60, 2-(1,3-dimethyl-1H-pyrazol-5-yl)-6-methyl-4-(1-methyl-2-oxo-5-phenyl-1,2-dihydropyridin-4-yl)-1,6-dihydro-7H-pyrrolo[2,3-c] pyridin-7-one] | xxx (Fold >200) | ≤ 50 nM | – | – | > 1000 nM | – | 631 ng/mL | 59.9% | – | –
12 | Cc1cccc(C)c1Oc1cn(C)c(=O)cc1-c1cn(C)c(=O)c2[nH]c(-c3ncc[nH]3)cc12 [Example 2, 4-(5-(2,6-dimethylphenoxy)-1-methyl-2-oxo-1,2-dihydropyridin-4-yl)-2-(1H-imidazol-2-yl)-6-methyl-1,6-dihydro-7H-pyrrolo [2,3-c] pyridin-7-one] | xx (Fold >50 and ≤200) | ≤ 50 nM | – | 100% | > 1000 nM | 0.9 ml/min/g liver | – | – | – | –
13 | Cc1cc(-c2cc3c(-c4cc(=O)n(C5CC5)cc4Oc4c(C)cccc4C)cn(C)c(=O)c3[nH]2)cc(C)n1 [Example 59, 1-cyclopropyl-5-(2,6-dimethylphenoxy)-4-[2-(2,6-dimethylpyridin-4-yl)-6-methyl-7-oxo-1H-pyrrolo[2,3-c]pyridin-4-yl]pyridin-2-one] | xxx (Fold >200) | ≤ 50 nM | – | – | > 1000 nM | – | – | – | 5460 ng/mL | 100%
